The values that follow come from patent US4701205A, “Chemical tobacco sucker control” (Chevron Research Company, priority 1986, dated 1987).

The inhibition is the relative decrease from the control value, in per cent.

The test system of assay [1] is tobacco suckers (axillary buds), Var. Glurk. Description: Tobacco sucker control, spray to run-off on topped plants, Var. Glurk. Conditions: for inhibition at 400 µg/mL / inhibition at 800 µg/mL / inhibition at 1600 µg/mL / inhibition at 200 µg/mL: Nicotiana tabacum; for Mean # of Nodes with Secondary Suckers / Mean Sucker Length (cm): Table 3. It is filed as in vivo, Nicotiana tabacum. The method, then: In this example, the title compound of Example 1 (i.e., 2-[1-(3-trans-chloroallyloxyamino)ethylidene]-5-(2-ethylthiopropyl)cyclohexane-1,3-dione was tested side-by-side with 2-[1-(3-trans-chloroallyloxyamino)butylidene]-5-(2-ethylthio-propyl)-cyclohexane-1,3-dione for their ability to control (retard or prevent) lateral axillary buds in tobacco plants.
(§1) Twenty-four hours before treatment, the tobacco plants are "topped", removing the top 15 cm of the plant. Any plants which are tending to lean or bend in the pot were staked, and all pots labeled. Three to five replicates were used per treatment. A 5% wt. stock solution of each test compound dissolved in acetone containing a small amount of non-ionic emulsifier was prepared. The stock solution was appropriately diluted with deionized water containing 0.625 g of emulsifier per liter of water, to the desired spray solution concentration.
(§2) Plants were sprayed to point of run-off with a pressure atomizer, making sure that the stem, leaf axils, and leaves were all wet thoroughly with the solution. 30 to 35 ml of solution were used per plant. This was checked by recording volume of solution in sprayer reservoir before and after treatment. After spraying, the plants were incubated for 18 to 23 days in a greenhouse maintained at 70°-80° F. using standing water capilliary irrigation. The plants were uniformly fertilized once per week with a standard house plant fertilizer. After the incubation period, the plants were evaluated at various times for sucker control. […] The growth of secondary suckers (buds at lower nodes) when present, were also measured.
(§3) In some instances, comparisons were also made on the basis of sucker length.
(§4) The results are reported as an average of the replicates used in each test.
(§5) In this example, the title compound of Example 1 was tested side-by-side with maleic hydrazide ("C-2") with respect to axillary bud control in two varities of tobacco plants. These tests were conducted following the same general procedure as described in Example 3 hereinabove using the dosage concentrations given in the tables hereinbelow. […]

The test system of assay [2] is tobacco suckers (axillary buds). Description: Tobacco sucker control, soil drench treatment. It is filed as in vivo. Conditions: for inhibition at 400 µg/mL: Nicotiana tabacum, read-out: Percent Bud Inhibition Top Three Nodes. As to the method: as §1
(§6) Plants were sprayed to point of run-off with a pressure atomizer, making sure that the stem, leaf axils, and leaves were all wet thoroughly with the solution. 30 to 35 ml of solution were used per plant. This was checked by recording volume of solution in sprayer reservoir before and after treatment. After spraying, the plants were incubated for 18 to 23 days in a greenhouse maintained at 70°-80° F. using standing water capilliary irrigation. The plants were uniformly fertilized once per week with a standard house plant fertilizer. After the incubation period, the plants were evaluated at various times for sucker control. To make this evaluation, the axillary buds at the top three nodes (primary suckers) of each plant were compared to those of the check, and a visual estimation of percent inhibition was made wherein 0=no inhibition of axillary buds as compared with check and 100=no axillary buds at top three nodes. The growth of secondary suckers (buds at lower nodes) when present, were also measured.
(§7) In this example, the title compound of Example 1 was tested side-by-side with maleic hydrazide for tobacco sucker control (inhibition), when applied as a soil drench and also when applied only to the leaves of the plant. The same general procedure as described in Example 3 was used with the exception that the test compound was applied only to the expanded leaves for foliage treatment (foliar paint) and the compound was drenched only on the soil in the pot for soil drench treatment. The average results of these tests are given in the following table, wherein 0=no inhibition and 100=complete inhibition, i.e., no axillary buds.

Assay [3] shares this test system. Nature of the assay: Tobacco sucker control, foliar paint (expanded leaves only). It is filed as in vivo. The following applies: for inhibition at 400 µg/mL: Nicotiana tabacum, read-out: Percent Bud Inhibition Top Three Nodes; for Sucker control when applied only to the leaves (systemic action), in words: applied only to the leaves of the tobacco plant. The method, then:
as §1, §6, §7

Assay [4] has as its system tobacco suckers (axillary buds), Var. 12 × L8. Description: whole plant or invertebrate. Type of assay: in vivo, Nicotiana tabacum. Conditions: for inhibition at 200 µg/mL / inhibition at 400 µg/mL / inhibition at 800 µg/mL: Nicotiana tabacum, Table 2, read-out: Percent Bud Inhibition Top Two Nodes; for Mean # of Nodes with Secondary Suckers / Mean Sucker Length (cm): Table 3. The method, then:
as §1, §2, §3, §4, §5

[5] abbreviates: 504 h, Table I, 400 mg/l spray, three weeks after treatment, read-out: Percent Bud Inhibition.
Where [6] appears, read: 504 h, Table I, 800 mg/l spray, three weeks after treatment, read-out: Percent Bud Inhibition.
Where [7] appears, read: 504 h, Table I, 1600 mg/l spray, three weeks after treatment, read-out: Percent Bud Inhibition.
Setting [8] is: 1008 h, Table I, 400 mg/l spray, six weeks after treatment, read-out: Percent Bud Inhibition Top two Nodes.
[9] abbreviates: 1008 h, Table I, 800 mg/l spray, six weeks after treatment, read-out: Percent Bud Inhibition Top two Nodes.
The mark [10] stands for this setting: 1008 h, Table I, 1600 mg/l spray, six weeks after treatment, read-out: Percent Bud Inhibition Top two Nodes.
Where [11] appears, read: Table I, 400 mg/l spray, six weeks after treatment.
[12] abbreviates: Table I, 400 mg/l spray, three weeks after treatment.
[13] abbreviates: Table I, 800 mg/l spray, six weeks after treatment.
Setting [14] is: Table I, 800 mg/l spray, three weeks after treatment.
Setting [15] is: Table I, 1600 mg/l spray, six weeks after treatment.
[16] abbreviates: Table I, 1600 mg/l spray, three weeks after treatment.
Where [17] appears, read: 200 mg/l spray, six weeks after treatment.
Setting [18] is: 400 mg/l spray, six weeks after treatment.
Setting [19] is: 800 mg/l spray, six weeks after treatment.

Like-named read-outs stand apart in the source and are kept apart here.

Take `CCCC(NOC/C=C/Cl)=C1C(=O)CC(CC(C)SCC)CC1=O` (stereo not drawn) [Compound C-1, 2-[1-(3-trans-chloroallyloxyamino)butylidene]-5-(2-ethylthio-propyl)-cyclohexane-1,3-dione]: the inhibition at 400 µg/mL in assay [1] (setting [5]) and in assay [1] (setting [8]) was 0% throughout. For the same molecule, the inhibition at 800 µg/mL in assay [1] (setting [6]) and in assay [1] (setting [9]) was 0% in each case. Moreover, the inhibition at 1600 µg/mL in assay [1] (setting [7]) was 7%; in assay [1] (setting [10]) it was 0%. Besides, the “Number of Secondary Suckers (axillary buds at lower nodes)” value in assay [1] (setting [11]), in assay [1] (setting [13]) and in assay [1] (setting [15]) was 0 throughout. The “Total Sucker Length” value in assay [1] (setting [11]), in assay [1] (setting [13]) and in assay [1] (setting [15]) was 0 cm each time. Further, the “Number of Usable Leaves” value came out at 7.3 in assay [1] (setting [12]), 7.7 in assay [1] (setting [14]) and 6.0 in assay [1] (setting [16]).
Consider `CCC(C)Nc1c([N+](=O)[O-])cc(C(C)(C)C)cc1[N+](=O)[O-]` (centres unmarked) [Compound C-3, 4-(1,1-dimethylethyl)-N--(1-methyl-propyl)-2,6-dinitrobenzenamine], for which the inhibition at 400 µg/mL turned out to be 27% in assay [2] (soil, 1008 h) and 3% in assay [3] (foliar, 1008 h). Moreover, the “Sucker control when applied as a soil drench (systemic action), in words” value in assay [2] is recorded as “ineffective”. Further, in assay [3], the “Sucker control when applied only to the leaves (systemic action), in words” value is listed as “ineffective”.
For the molecule `CCSC(C)CC1CC(=O)C(=C(C)NOC/C=C/Cl)C(=O)C1` (stereo not drawn) [Compound 1, Trans-2-[1-(3-chloroallyloxyamino)-ethylidene]-5-(2-ethylthiopropyl)-cyclohexane-1,3-dione], the inhibition at 200 µg/mL was found to be 100% in assay [1] (504 h, Table 2, 200 mg/l spray, three weeks after treatment, read-out: Percent Bud Inhibition Top Two Nodes); 100% in assay [1] (1008 h, Table 2, 200 mg/l spray, six weeks after treatment, read-out: Percent Bud Inhibition Top Two Nodes); 95% in assay [4] (504 h, 200 mg/l spray, three weeks after treatment); 86.3% in assay [4] (1008 h, 200 mg/l spray, six weeks after treatment). For the same molecule, the inhibition at 400 µg/mL in assay [1] (504 h, Table 2, 400 mg/l spray, three weeks after treatment, read-out: Percent Bud Inhibition Top Two Nodes) was determined as 100%; in assay [1] (setting [5]) it was 100%; in assay [1] (1008 h, Table 2, 400 mg/l spray, six weeks after treatment, read-out: Percent Bud Inhibition Top Two Nodes) it was 100%; in assay [1] (setting [8]), 100%; in assay [4] (504 h, 400 mg/l spray, three weeks after treatment), 93%; in assay [4] (1008 h, 400 mg/l spray, six weeks after treatment), 96.9%. The inhibition at 400 µg/mL in assay [2] (504 h, Soil Drench (30 ml/pot), 400 mg/l, three weeks after treatment) turned out to be 100%; in assay [2] (1008 h, Soil Drench (30 ml/pot), 400 mg/l, six weeks after treatment), 100%; in assay [3] (504 h, Foliar Paint (Leaves Only), 400 mg/l, three weeks after treatment) it was 98%; in assay [3] (1008 h, Foliar Paint (Leaves Only), 400 mg/l, six weeks after treatment), 99%. Moreover, the inhibition at 800 µg/mL in assay [1] (504 h, Table 2, 800 mg/l spray, three weeks after treatment, read-out: Percent Bud Inhibition Top Two Nodes) is 100%; in assay [1] (setting [6]) it was 100%; in assay [1] (1008 h, Table 2, 800 mg/l spray, six weeks after treatment, read-out: Percent Bud Inhibition Top Two Nodes), 100%; in assay [1] (setting [9]), 100%; in assay [4] (504 h, 800 mg/l spray, three weeks after treatment) it was 95%; in assay [4] (1008 h, 800 mg/l spray, six weeks after treatment), 96.8%. In addition, the inhibition at 1600 µg/mL in assay [1] (setting [7]) and in assay [1] (setting [10]) was 100% throughout. Moreover, the “Mean # of Nodes with Secondary Suckers” value was determined as 2.5 in assay [1] (setting [17]); 1.5 in assay [1] (setting [18]); 0.5 in assay [1] (setting [19]); 4.0 in assay [4] (setting [17]); 2.6 in assay [4] (setting [18]); 2.3 in assay [4] (setting [19]). For the same molecule, the “Mean Sucker Length (cm)” value in assay [1] (setting [17]) is listed as 30.8 cm; in assay [1] (setting [18]), 9.6 cm; in assay [1] (setting [19]), 10.0 cm; in assay [4] (setting [17]) it was 24.0 cm; in assay [4] (setting [18]), 45.3 cm; in assay [4] (setting [19]), 17.4 cm. Besides, the “Number of Secondary Suckers (axillary buds at lower nodes)” value in assay [1] (setting [11]) is given as 2.3; in assay [1] (setting [13]) it was 1.3; in assay [1] (setting [15]), 0. For the same molecule, the “Total Sucker Length” value came to 24 cm in assay [1] (setting [11]), 7 cm in assay [1] (setting [13]) and 0 cm in assay [1] (setting [15]). For the same molecule, the “Number of Usable Leaves” value in assay [1] (setting [12]) was found to be 6.7; in assay [1] (setting [14]), 6.7; in assay [1] (setting [16]), 6.3. For the same molecule, in assay [2], the “Sucker control when applied as a soil drench (systemic action), in words” value is on record as “highly effective”. For the same molecule, the “Observation on suckers at basal nodes (footnote a)” value in assay [3] (Foliar Paint, 400 mg/l, six weeks after treatment) is on record as “some suckers appearing at basal nodes”. Moreover, the “Sucker control when applied only to the leaves (systemic action), in words” value in assay [3] is given as “highly effective”.
